From article PMC8781390, “Inclusion Complexes of Rifampicin with Native and Derivatized Cyclodextrins: In Silico Modeling, Formulation, and Characterization” (Pharmaceuticals, 2021)
Values after ≈ are worked out from the molar mass of the structure shown. Where two headings read alike, the source gives them in different places.

How the values were obtained:
[1] = Phase solubility analysis of RIF with cyclodextrins (binding constant, complexation efficiency); type: physicochemical
Procedure: Phase solubility analysis was carried out similarly to the saturation solubility studies by using a range of concentrations of CDs in buffered solutions at different pH vales. […] Solubility of each drug was determined and plotted in a graph with the nominal concentration of cyclodextrin on the x-axis and the nominal concentration of RIF on the y-axis.
In order to determine the binding strength of CD and RIF, the binding constant (Ks) was calculated based on the phase diagram of solubility studies. […] (1) Ks=[RIF−CD]/[RIF]free·[CD]free CD+RIF↔KsCD−RIF where [RIF − CD], [RIF]free, and [CD]free are concentration of the RIF-CD complexes, free RIF, and free CD, respectively.
[RIF]free can be considered as RIF initial solubility (S0), therefore Equation (2) becomes:(2) Ks=[RIF−CD]/S0·[CD]free
The phase solubility diagram was constructed by plotting the RIF molar concentration on the y-axis and the CD molar concentration on the x-axis. […] (3) Ks=slope/S0·(1−slope)
The complexation efficiency (CE) was determined by using the slope of the phase solubility diagram according to Equation (4). (4) CE=[CD−RIF]/[CD]free=S0·Ks=slope/1−slope
Based on CE determination, the CD molar ratio was calculated using Equation (5). (5) Drug :CD molar ratio=1 : (CE+1)/CE

[2] = tested on: Methicillin-resistant Staphylococcus aureus (MRSA) (ATCC 33593); assay: MIC by broth microdilution; type: cell-based; conditions: 24 h, MRSA ATCC 33593, 37 °C
Procedure: (§1) The minimum inhibitory concentration (MIC) of pure RIF and RIF-CD complexes was determined against both Staphylococcus aureus (NCTC® 10788) and methicillin-resistant Staphylococcus aureus (MRSA) (ATCC® 33593™) using the broth microdilution method. Briefly, inclusion complexes of RIF-CD were separately dissolved in sterile distilled water and diluted with Mueller–Hinton broth (MHB) to obtain a series of culture media containing different RIF concentrations ranging from 50 to 0.78 µg/mL. Solutions and suspensions of pure RIF were prepared by adding the pure RIF in methanol and in sterile distilled water, respectively, and then diluted with MHB to achieve the same concentration as for the RIF-CD inclusion complexes. Culture media in the microplates were inoculated with 100 µL of each bacterial suspension to achieve a final bacterial concentration of 2.0 × 10^5 CFU/mL. Pure MHB inoculated with the different bacterial strains was included as a positive control. The inoculated culture media were then incubated at 37 °C for 24 h. The MIC was determined as the lowest concentration of pure RIF and RIF-CD inclusion complexes where no visible bacterial growth was detected.

[3] = tested on: Staphylococcus aureus (NCTC 10788); assay: MIC by broth microdilution; type: cell-based; conditions: Staphylococcus aureus NCTC 10788, 37 °C
Procedure: as §1

[4] = Saturation solubility of RIF in buffered solutions; type: physicochemical; conditions: buffered solution
Procedure: Solubility studies were performed to assess RIF solubility in a range of buffers (pH 4.0, pH 7.0, and pH 9.0). For this purpose, an excess amount of RIF was added to 3 mL of adjusted buffered solutions in a glass vial. Suspensions were stirred at 100 rpm in a shaker incubator (Jeio Tech ISF-7100, Medline Scientific, Chalgrove Oxon, UK) at 37 °C for 24 h. Samples were then filtered using 0.2 μm syringe filters (Minisart®, Sartorius Stedim Biotech, Goeltingen, Germany). All samples were diluted appropriately and analyzed using the validated HPLC method described in Section 2.10.
(§2) The HPLC method for RIF quantification was adapted from our previous work. HPLC Agilent 1220 Series (Agilent Technologies, UK Ltd., Stockport, UK) was used to analyze all the samples. Isocratic separation was achieved using a Phenomenex® Luna C18 (ODS1) column (150 × 4.6 mm internal diameter, 5 µm packing) (Phenomenex, Cheshire, UK). The injection volume was 50 µL and the analysis was carried out at room temperature with a flow rate of 1 mL/min. The mobile phase was a mixture of 25 mM sodium dihydrogen phosphate buffer (with 1% triethylamine and adjusted using phosphoric acid at pH 6.8) and methanol (ratio 30:70 v/v). RIF was detected by a UV at 334 nm. All chromatograms were analyzed using the Agilent ChemStation® Software B.02.01.

[5] = In vitro release / dissolution study; type: physicochemical; conditions: all studied release media (pH 1.2, 6.8, 7.4), 37 °C
Procedure: In vitro release profiles for pure RIF and RIF-CD inclusion complexes were evaluated […]. Simulated gastric fluid (pH 1.2), simulated intestinal fluid (pH 6.8), and PBS (pH 7.4) were prepared as the release media in this study and used to mimic biological conditions in the human body. All samples were added into Eppendorf tubes containing 2 mL of the release media and were then placed in an incubator at 37 °C with shaking at 40 rpm. Sampling was carried out at 1, 2, 3, 4, 5, 6, 7, 8, and 24 h by taking 200 µL of each sample, transferring them to HPLC vials containing glass inserts, and replacing the sample with 200 µL of fresh release media. The samples were analyzed using a validated HPLC method.
as §2, with “The mobile phase was a mixture of 25 mM sodium dihydrogen phosphate buffer (with 1% triethylamine and adjusted using phosphoric acid at pH 6.8) and methanol (ratio 30:70 v/v).” left out

[6] = design: method as in earlier work; conditions: in humans; cited from earlier work

| Compound | CE (complexation efficiency) ([1]; pH 4.0) | Ks (binding constant) ([1]; pH 4.0, RIF-CD 1:1 complex) [M⁻¹] | CE (complexation efficiency) ([1]; pH 7.0) | Ks (binding constant) ([1]; pH 7.0, RIF-CD 1:1 complex) [M⁻¹] | also measured |
| --- | --- | --- | --- | --- | --- |
| hydroxypropyl-βCD [HP-βCD] | 0.20 | 541 | 0.92 | 848 | CE (complexation efficiency) ([1]; pH 9.0): 1.12; Ks (binding constant) ([1]; pH 9.0, RIF-CD 1:1 complex): 649 M⁻¹ |
| CO[C@H]1/C=C/O[C@@]2(C)Oc3c(C)c(O)c4c(O)c(c(/C=N/N5CCN(C)CC5)c(O)c4c3C2=O)NC(=O)/C(C)=C\C=C\[C@H](C)[C@H](O)[C@@H](C)[C@@H](O)[C@@H](C)[C@H](OC(C)=O)[C@@H]1C [Pure RIF (solution), Rifampicin] |  |  |  |  | MIC ([2]; Staphylococcus aureus, n = 3, read-out: MIC): 0.78 µg/mL (≈ 0.948 µM); MIC ([3]; Staphylococcus aureus, NCTC10788, 24 h, n = 3, read-out: MIC): 0.78 µg/mL (≈ 0.948 µM) |
| CO[C@H]1/C=C/O[C@@]2(C)Oc3c(C)c(O)c4c(O)c(c(/C=N/N5CCN(C)CC5)c(O)c4c3C2=O)NC(=O)/C(C)=C\C=C\[C@H](C)[C@H](O)[C@@H](C)[C@@H](O)[C@@H](C)[C@H](OC(C)=O)[C@@H]1C [Pure RIF (suspension), Rifampicin] |  |  |  |  | MIC ([2]; n = 3): 1.56 µg/mL (≈ 1.9 µM); MIC ([3]; 24 h, n = 3): 1.56 µg/mL (≈ 1.9 µM) |
| OC[C@H]1O[C@@H]2O[C@H]3[C@H](O)[C@@H](O)[C@@H](O[C@H]4[C@H](O)[C@@H](O)[C@@H](O[C@H]5[C@H](O)[C@@H](O)[C@@H](O[C@H]6[C@H](O)[C@@H](O)[C@@H](O[C@H]7[C@H](O)[C@@H](O)[C@@H](O[C@H]8[C@H](O)[C@@H](O)[C@@H](O[C@H]9[C@H](O)[C@@H](O)[C@@H](O[C@H]1[C@H](O)[C@H]2O)O[C@@H]9CO)O[C@@H]8CO)O[C@@H]7CO)O[C@@H]6CO)O[C@@H]5CO)O[C@@H]4CO)O[C@@H]3CO [γCD] | 0.80 |  | 1.22 | 1284 |  |
| CO[C@H]1/C=C/O[C@@]2(C)Oc3c(C)c(O)c4c(O)c(c(/C=N/N5CCN(C)CC5)c(O)c4c3C2=O)NC(=O)/C(C)=C\C=C\[C@H](C)[C@H](O)[C@@H](C)[C@@H](O)[C@@H](C)[C@H](OC(C)=O)[C@@H]1C [RIF, Rifampicin] |  |  |  |  | solubility at 24 h ([4]; aqueous buffer, thermodynamic from solid, buffer pH 7.0, 37 °C): 870 µg/mL (≈ 1060 µM); solubility at 24 h ([4]; buffer pH 4.0, 37 °C): 310 µg/mL (≈ 377 µM); solubility at 24 h ([4]; buffer pH 9.0, 37 °C): 1400 µg/mL (≈ 1700 µM); RIF released in 2 h [5]: less than 10%; oral bioavailability [6]: approximately 68% |
| OC[C@H]1O[C@@H]2O[C@H]3[C@H](O)[C@@H](O)[C@@H](O[C@H]4[C@H](O)[C@@H](O)[C@@H](O[C@H]5[C@H](O)[C@@H](O)[C@@H](O[C@H]6[C@H](O)[C@@H](O)[C@@H](O[C@H]7[C@H](O)[C@@H](O)[C@@H](O[C@H]8[C@H](O)[C@@H](O)[C@@H](O[C@H]1[C@H](O)[C@H]2O)O[C@@H]8CO)O[C@@H]7CO)O[C@@H]6CO)O[C@@H]5CO)O[C@@H]4CO)O[C@@H]3CO [βCD] | 0.09 | 215 | 0.29 | 250 |  |
